“And” between values parts separate entries of the source, which are not always exact repeats. Equal values may be shown once.
Tested on: 817829-284-R-J1-PDC complex spheroids, viability
Test: Anticancer human tumor 817829-284-R-J1-PDC patient-derived colon adenocarcinoma cell line growth inhibition [CLK]
Conditions: for viability, T/C: stronger effect = lower value; active = viability on the fitted dose curve at most 10% of control; inactive = the rest
Method in brief: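 Multi-cell-type spheroids combined patient-derived tumor cells with HUVEC endothelial cells and human mesenchymal stem cells. Paired agents were dosed in half-log steps down from about clinical Cmax, or from 10 microM where Cmax was unknown.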

[1] = curve of first compound, second compound 0.0316 µM
[2] = curve of first compound, second compound 0.1 µM
[3] = curve of first compound, second compound 0.316 µM
[4] = curve of first compound, second compound 1 µM
[5] = curve of first compound, second compound 3.16 µM
[6] = curve of first compound, second compound 10 µM
[7] = second compound 0.0316 µM, first compound 0.0316 µM
[8] = second compound 0.0316 µM, first compound 0.1 µM
[9] = second compound 0.0316 µM, first compound 0.316 µM
[10] = second compound 0.0316 µM, first compound 1 µM
[11] = second compound 0.0316 µM, first compound 3.16 µM
[12] = second compound 0.0316 µM, first compound 10 µM
[13] = second compound 0.1 µM, first compound 0.0316 µM
[14] = second compound 0.1 µM, first compound 0.1 µM
[15] = second compound 0.1 µM, first compound 0.316 µM
[16] = second compound 0.1 µM, first compound 1 µM
[17] = second compound 0.1 µM, first compound 3.16 µM
[18] = second compound 0.1 µM, first compound 10 µM
[19] = second compound 0.316 µM, first compound 0.0316 µM
[20] = second compound 0.316 µM, first compound 0.1 µM
[21] = second compound 0.316 µM, first compound 0.316 µM
[22] = second compound 0.316 µM, first compound 1 µM
[23] = second compound 0.316 µM, first compound 3.16 µM
[24] = second compound 0.316 µM, first compound 10 µM
[25] = second compound 1 µM, first compound 0.0316 µM
[26] = second compound 1 µM, first compound 0.1 µM
[27] = second compound 1 µM, first compound 0.316 µM
[28] = second compound 1 µM, first compound 1 µM
[29] = second compound 1 µM, first compound 3.16 µM
[30] = second compound 1 µM, first compound 10 µM
[31] = second compound 3.16 µM, first compound 0.0316 µM
[32] = second compound 3.16 µM, first compound 0.1 µM
[33] = second compound 3.16 µM, first compound 0.316 µM
[34] = second compound 3.16 µM, first compound 1 µM
[35] = second compound 3.16 µM, first compound 3.16 µM
[36] = second compound 3.16 µM, first compound 10 µM
[37] = second compound 10 µM, first compound 0.0316 µM
[38] = second compound 10 µM, first compound 0.1 µM
[39] = second compound 10 µM, first compound 0.316 µM
[40] = second compound 10 µM, first compound 1 µM
[41] = second compound 10 µM, first compound 3.16 µM
[42] = second compound 10 µM, first compound 10 µM
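Also: spheroids exposed to the agents for seven days before readout.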

CC(=O)O[C@H]1C(=O)[C@@]2(C)[C@H]([C@H](OC(=O)c3ccccc3)[C@]3(O)C[C@H](OC(=O)[C@H](O)[C@@H](NC(=O)c4ccccc4)c4ccccc4)C(C)=C1C3(C)C)[C@]1(OC(C)=O)CO[C@@H]1C[C@@H]2O + CN1CCN(c2cc(C(=O)Nc3cc4cc(-c5cnn(C)c5)ccc4cn3)ccn2)CC1
active: viability, T/C [7] 5.38% | viability, T/C [8] 5.12% | viability, T/C [9] 4.55% | viability, T/C [10] 4.77% | viability, T/C [11] 5.22% | viability, T/C [12] 5.27% | viability, T/C [13] 5.23% | viability, T/C [14] 4.54% | viability, T/C [15] 4.59% | viability, T/C [16] 4.02% | viability, T/C [17] 4.74% | viability, T/C [18] 5.63% | viability, T/C [19] 2.41% | viability, T/C [20] 2.26% | viability, T/C [21] 2.43% | viability, T/C [22] 2.04% | viability, T/C [23] 2.2% | viability, T/C [24] 2.45% | viability, T/C [25] 0.09% | viability, T/C [26] 0.1% | viability, T/C [27] 0.09% | viability, T/C [28] 0.07% | viability, T/C [29] 0.09% | viability, T/C [30] 0.11% | viability, T/C [31] 0.11% | viability, T/C [32] 0.14% | viability, T/C [33] 0.13% | viability, T/C [34] 0.16% | viability, T/C [35] 0.1% | viability, T/C [36] 0.14% | viability, T/C [37] 0.07% | viability, T/C [38] 0.1% | viability, T/C [39] 0.11% | viability, T/C [40] 0.09% | viability, T/C [41] 0.11% | viability, T/C [42] 0.12%
< 31.6 nM: IC50 [1] | IC50 [2] | IC50 [3] | IC50 [4] | IC50 [5] | IC50 [6]

C=C(F)C(=O)N1CCN(c2nc(OCC3CCCN3C)nc3c2CCN(c2cccc4cccc(Cl)c24)C3)CC1CC#N (stereo not drawn) + CNC(=O)c1ccc(Nc2nc(OC3CCCC3)c3c(-c4ccc5nc(C)oc5c4)c[nH]c3n2)c(OC)c1
active: viability, T/C [12] 0.08% | viability, T/C [18] 0.15% | viability, T/C [24] 0.08% | viability, T/C [30] 0.07% | viability, T/C [35] 3.26% | viability, T/C [36] 0.18% | viability, T/C [41] 3.94% | viability, T/C [42] 0.22%
inactive: viability, T/C [7] 19.9% | viability, T/C [8] 42.3% | viability, T/C [9] 23.4% | viability, T/C [10] 23.3% | viability, T/C [11] 17.6% | viability, T/C [13] 34.9% | viability, T/C [14] 23% | viability, T/C [15] 26.5% | viability, T/C [16] 23.6% | viability, T/C [17] 16.1% | viability, T/C [19] 25.3% | viability, T/C [20] 25.3% | viability, T/C [21] 22.7% | viability, T/C [22] 24.5% | viability, T/C [23] 10.8% | viability, T/C [25] 22.4% | viability, T/C [26] 24.6% | viability, T/C [27] 28% | viability, T/C [28] 24.4% | viability, T/C [29] 5.74% | viability, T/C [31] 20.7% | viability, T/C [32] 26.8% | viability, T/C [33] 22.5% | viability, T/C [34] 21% | viability, T/C [37] 21.7% | viability, T/C [38] 14.1% | viability, T/C [39] 20.6% | viability, T/C [40] 28.5%
< 31.6 nM: IC50 [1] | IC50 [2] | IC50 [3] | IC50 [4] | IC50 [5] | IC50 [6]

COC1C=CCC(C)C(C)S(=O)(=O)NC(=O)c2ccc3c(c2)N(CC2CCC21)CC1(CCCc2cc(Cl)ccc21)CO3 (stereo not drawn) + CN1CCN(c2cc(C(=O)Nc3cc4cc(-c5cnn(C)c5)ccc4cn3)ccn2)CC1
inactive: viability, T/C [7] 52.5% | viability, T/C [8] 70% | viability, T/C [9] 51.2% | viability, T/C [10] 63.3% | viability, T/C [11] 28.2% | viability, T/C [13] 21.4% | viability, T/C [14] 18.1% | viability, T/C [15] 16.3% | viability, T/C [16] 12.3%
< 31.6 nM: IC50 [2] | IC50 [3] | IC50 [4] | IC50 [5] | IC50 [6]
1410 nM: IC50 [1]
active: viability, T/C [12] 7.26% | viability, T/C [17] 5.31% | viability, T/C [18] 2.6% | viability, T/C [19] 1.91% | viability, T/C [20] 1.47% | viability, T/C [21] 1.45% | viability, T/C [22] 1.31% | viability, T/C [23] 1.5% | viability, T/C [24] 0.95% | viability, T/C [25] 0.08% | viability, T/C [26] 0.21% | viability, T/C [27] 0.16% | viability, T/C [28] 0.07% | viability, T/C [29] 0.35% | viability, T/C [30] 0.05% | viability, T/C [31] 0.15% | viability, T/C [32] 0.16% | viability, T/C [33] 0.23% | viability, T/C [34] 0.46% | viability, T/C [35] 0.28% | viability, T/C [36] 0.08% | viability, T/C [37] 0.48% | viability, T/C [38] 0.13% | viability, T/C [39] 0.19% | viability, T/C [40] 0.31% | viability, T/C [41] 0.37% | viability, T/C [42] 0.17%

O=C(c1cc(Cc2n[nH]c(=O)c3ccccc23)ccc1F)N1CCN(C(=O)C2CC2)CC1
3680 nM and 4810 nM: IC50 (curve of compound)
inactive: viability, T/C (compound 0.0316 µM) 87.7% and 101% | viability, T/C (compound 0.1 µM) 89% and 107% | viability, T/C (compound 0.316 µM) 81.1% and 74.2% | viability, T/C (compound 1 µM) 70.4% and 86.8% | viability, T/C (compound 3.16 µM) 52.5% and 54% | viability, T/C (compound 10 µM) 34.7% and 36.2%

— PubChem BioAssay AID2060599 (Molecular Pharmacology Branch, DTP, NCI, 2025)
